Data: US4820715A, “Anti-emetic quinuclidinyl benzamides” (Bristol-Myers Company, priority 1987, dated 1989)
Where a name gives a salt, the structure may show the parent alone. Read-outs that look alike come from different tables or passages of the source.

What was measured:
[1] = system: Apomorphine-Induced Emesis; assay: Antagonism of Apomorphine-Induced Emesis in Dogs; format: in vivo, beagle dogs; conditions: Canis lupus familiaris, sc, read-out: Antagonism of Apomorphine-Induced Emesis in the Dog ED50
Description: Unfasted beagle dogs of both sexes were used as test subjects. Test compounds and apomorphine were each administered subcutaneously as aqueous solutions, with the test compound being administered 30 minutes prior to the administration of the apormorphine.
Apomorphine was administered at a dose of 0.3 mg/kg. […] All tests were run in at least two dogs.

[2] = system: Cisplatin-Induced Emesis; assay: Antagonism of Cisplatin-Induced Emesis in the Ferret; format: in vivo, Fitch ferrets; conditions: Mustela putorius, iv, 4 h, read-out: Antagonism of Cisplatin-Induced Emesis in the Ferret, % Protection
From the text: The ventral and dorsal area of the neck is shaved and a 3 cm incision is made. The left jugular vein is exposed and ligated with a silk suture at the cephalic end. The indwelling catheter is constructed of Silastic tubing 18 cm in length (0.020 inch I.D.×0.037 inch O.D.) with a 2 cm polyethylene sleeve (0.045 inch I.D.×0.062 inch O.D.) filled with heparin (1000 units/ml) and sealed at the exposed end with a 23 gauge×1 inch needle crimped at both ends. A small cut is made in the jugular and the catheter inserted, allowing the free end to be delivered through a 13 gauge×5 cm trochar under the skin and attached to the nape of the neck with a silk suture. The ferrets are housed in individual cages and allowed 2-4 days recovery before testing. On the test day, the test compounds were administered i.v. […] The cisplatin solution was prepared by adding 70° C. physiological saline, stirring and sonicating until dissolved. The resulting solution (4 mg/ml) was maintained at 40° C. and administered i.v. ([…]) via the catheter. Following administration of cisplatin, the ferrets were observed continuously for four hours and emetic episodes recorded. Two or more emetic episodes within a one-minutes period was considered as a single episode. The ferrets were euthanized with T-61 i.v. at the termination of the experiment, and proper placement of the catheter was verified.

[3] = system: field-stimulated guinea pig ileum; assay: Gastrokinetic Activity: contraction of field-stimulated guinea pig ileum preparations; parameters: species or system guinea pig (Hartley); conditions: Cavia porcellus
Description: This activity is considered to be correlated with gastrokinetic (prokinetic) activity in vivo, i.e. enhancement of gastric motility and gastric emptying.
Normal, male guinea pigs (Hartley; Charles River) weighing […] are sacrificed by cervical dislocation. The terminal portion of the ileum was removed after discarding a 10 cm segment nearest to the ileocecal junction. The strips, 3-4 cm in length, were mounted in a 20 ml organ bath containing Krebs physiological buffer solution. The buffer was bubbled with 95% O2 -5% CO2 and kept at 37° C. The resting tension was adjusted to 1.0 g, and the tissues were equilibrated without stimulation for 15 minutes. For electrical stimulation, a platinum wire (cathode) was threaded up through the lumen and another platinum wire (anode) was attached to the glass rod that suspended the muscle. Tissues were stimulated coaxially at 1.5 times the voltage necessary to produce maximum twitch height, with single pulses, 0.5 msec in duration, delivered once every 10 seconds. After the 15 minute equilibration period (without stimulation), the stimulator (Grass S88 Stimulator) was turned on and the tissues were allowed to stabilize for approximately 1 hour, or until the twitch height remained constant, with washes every 20 minutes.

[4] = s.c. 30 minutes prior to apomorphine 0.3 mg/kg, dog

| SMILES | ED50 [1, 4] | inhibition in vivo at 3 mg/kg ([2]; 3 mg/kg, i.v. × 2) | other results |
| --- | --- | --- | --- |
| CCN(CC)CCNC(=O)c1cc(Cl)c(N)cc1OC(C)C(C)O (mixture of isomers) [Example 41, 4-Amino-5-chloro-N-[2-(diethylamino)ethyl]-2-[(2-hydroxy)but-3-yl]oxybenzamide (mixture of threo and erythro isomers)] | > 3 mg/kg | 81% |  |
| O=c1[nH]c2ccccc2n1CCCN1CCC(n2c(=O)[nH]c3cc(Cl)ccc32)CC1 [Domperidone, reference compound] |  |  | ED50 [1]: 0.2 mg/kg; inhibition in vivo at 3 mg/kg [2]: 50% |
| CCN(CC)CCNC(=O)c1cc(Cl)c(N)cc1OCCOC [Example 1, 4-Amino-5-chloro-N-[2-(diethylamino)ethyl]-2-(2-methoxyethoxy)benzamide] | > 3 mg/kg | 76% |  |
| CCN(CC)CCNC(=O)c1cc(Cl)c(N)cc1OCCO [Example 2, 4-Amino-5-chloro-N-[2-(diethylamino)ethyl]-2-(2-hydroxyethoxy)benzamide] | > 3 mg/kg | 68% |  |
| CCN(CC)CCNC(=O)c1cc(Cl)c(N)cc1OCC(OC)OC [Example 3, 4-Amino-5-chloro-N-[2-(diethylamino)ethyl]-2-(2,2-dimethoxyethoxy)benzamide] | > 3 mg/kg | 82% |  |
| CCN(CC)CCNC(=O)c1cc(Cl)c(N)cc1OCC(C)=O [Example 5, 4-Amino-5-chloro-N-[2-(diethylamino)ethyl]-2-(2-propanon-1-yl)oxybenzamide] | > 3 mg/kg | 90% |  |
| CCN(CC)CCNC(=O)c1cc(Cl)c(N)cc1OCC(=O)c1ccccc1 [Example 6, 4-Amino-2-(2-phenyl-2-oxoethoxy)-5-chloro-N-[2-(diethylamino)ethyl]benzamid] | > 3 mg/kg | 100% |  |
| CCN(CC)CCNC(=O)c1cc(Cl)c(N)cc1OC(C)C(C)=O (stereo not drawn) [Example 7, 4-Amino-2-(butan-2-on-3-yl)oxy-5-chloro-N-[2-(diethylamino)ethyl]benzamide] | > 3 mg/kg | 95% |  |
| CCN(CC)CCNC(=O)c1cc(Cl)c(N)cc1OC1CCCCC1=O (stereo not drawn) [Example 9, 4-Amino-5-chloro-2-(cyclohexanon-2-yl)oxy-N-[2-(diethylamino)ethyl]benzamide] | > 3 mg/kg | 100% |  |
| CCN(CC)CCNC(=O)c1cc(Cl)c(N)cc1OCC(C)=NO [Example 10, 4-Amino-5-chloro-N-[2-(diethylamino)ethyl]-2-[(2-hydroxyimino)propan-1-yl]oxybenzamide] | > 3 mg/kg | 100% |  |
| CCN(CC)CCNC(=O)c1cc(Cl)c(N)cc1OCC(C)O (stereo not drawn) [Example 12, 4-Amino-5-chloro-N-[2-(diethylamino)ethyl]-2-(2-hydroxypropan-1-yl)oxybenzamide] | > 3 mg/kg | 86% |  |
| CCN(CC)CCNC(=O)c1cc(Cl)c(N)cc1OCC#N [Example 13, 4-Amino-5-chloro-2-cyanomethoxy-N-[2-(diethylamino)ethyl]benzamide] | > 3 mg/kg | 90% |  |
| CCN(CC)CCNC(=O)c1cc(Cl)c(N)cc1OCC(=O)OC [Example 15, 4-Amino-5-chloro-N-[2-(diethylamino)ethyl]-2-(2-methoxy-2-oxoethoxy)benzamide] | > 3 mg/kg | 30% |  |
| CN(C)CCNC(=O)c1cc(Cl)c(N)cc1O [Example 17, 4-Amino-5-chloro-N-[2-(dimethylamino)ethyl]-2-hydroxybenzamide] |  |  | activation at 10 µM ([3]; at 10 μM, read-out: Average % Maximum Increase): 41%; EC30 ([3]; effective concentration30, read-out: EC30 (95% C.L.)): 5.4 µM; EC50 ([3]; effective concentration50, read-out: EC50 (95% C.L.)): 15 µM; minimal effective concentration ([3]; read-out: Minimum Effective Concentration): 0.3 µM |
| CCN(CC)CCNC(=O)c1cc(Cl)c(N)cc1OCC1COC(C)(C)O1 (stereo not drawn) [Example 18, 4-Amino-5-chloro-N-[2-(diethylamino)ethyl]-2-(2,2-dimethyl-1,3-dioxalan-4-yl)methoxybenzamide] | > 3 mg/kg | 72% |  |
| C=CCC(Oc1cc(N)c(Cl)cc1C(=O)NCCN(CC)CC)C(C)=O (stereo not drawn) [Example 24, 4-Amino-5-chloro-N-[2-(diethylamino)ethyl]-2-(5-hexan-2-on-3-yl)oxybenzamide hydrochloride] | > 3 mg/kg | 67% |  |
| CCC(Oc1cc(N)c(Cl)cc1C(=O)NCCN(CC)CC)C(C)=O (stereo not drawn) [Example 25, 4-Amino-5-chloro-N-[2-(diethylamino)ethyl]-2-(pentan-2-on-3-yl)oxybenzamide] | > 3 mg/kg |  | inhibition in vivo at 1 mg/kg ([2]; i.v. × 2): 58% |
| CCC(=O)COc1cc(N)c(Cl)cc1C(=O)NCCN(CC)CC [Example 26, 4-Amino-2-(2-butanon-1-yl)oxy-5-chloro-N-[2-(diethylamino)-ethyl]benzamide] | > 3 mg/kg | 90% |  |
| CCCC(=O)COc1cc(N)c(Cl)cc1C(=O)NCCN(CC)CC [Example 27, 4-Amino-5-chloro-N-[2-(diethylamino)ethyl]-2-(pentan-2-on-1-yl)oxybenzamide] | > 3 mg/kg |  | inhibition in vivo at 1 mg/kg ([2]; i.v. × 2): 90% |
| CCC(=O)C(C)Oc1cc(N)c(Cl)cc1C(=O)NCCN(CC)CC.Cl (stereo not drawn) [Example 28, 4-Amino-5-chloro-2-(pentan-3-on-2-yl)oxy-N-(2-diethylaminoethyl)benzamide hydrochloride] | > 3 mg/kg |  | inhibition in vivo at 1 mg/kg ([2]; i.v. × 2): 82% |
| CCN(CC)CCNC(=O)c1cc(Cl)c(N)cc1OCC(=O)C(C)C [Example 29, 4-Amino-5-chloro-N-[2-(diethylamino)ethyl]-2-[(3-methyl)-butan-2-on-1-yl]oxybenzamide] | > 3 mg/kg |  | inhibition in vivo at 1 mg/kg ([2]; i.v. × 2): 44% |
| CCN(CC)CCNC(=O)c1cc(Cl)c(N)cc1OCC(=O)Cc1ccccc1 [Example 30, 4-Amino-5-chloro-N-[2-(diethylamino)ethyl]-2-(3-phenyl-2-propanon-1-yl)oxybenzamide] | > 3 mg/kg | 100% |  |
| CCN(CC)CCNC(=O)c1cc(Cl)c(N)cc1OC(C)(C)C(C)=O.O [Example 31, 4-Amino-5-chloro-N-[2-(diethylamino)ethyl]-2-[(3-methyl)butan-2-on-3-yl]oxybenzamide monohydrate] | > 3 mg/kg |  | inhibition in vivo at 1 mg/kg ([2]; i.v. × 2): 67% |
| CCN(CC)CCNC(=O)c1cc(Cl)c(N)cc1OCC(O)Cc1ccccc1 (stereo not drawn) [Example 33, 4-Amino-5-chloro-N-[2-(diethylamino)ethyl]-2-[2-(2-hydroxy-3-phenylpropyl)]oxybenzamide] | > 3 mg/kg |  | inhibition in vivo at 1 mg/kg ([2]; i.v. × 2): 54% |
| CCN(CC)CCNC(=O)c1cc(Cl)c(N)cc1OCC1OCCO1 [Example 43] | > 3 mg/kg | 67% |  |
| CCN(CC)CCNC(=O)c1cc(Cl)c(N)cc1OCc1ccccn1 [Example 45, 4-Amino-5-chloro-N-[2-(diethylamino)ethyl]-2-(2-pyridinomethyl)oxybenzamide] | > 3 mg/kg | 80% |  |
| CCN(CC)CCNC(=O)c1cc(Cl)c(N)cc1OCCOCCOC [Example 46, 4-Amino-5-chloro-N-[2-(diethylamino)ethyl]-2-(2-methoxyethoxyethyl)oxybenzamide] | > 3 mg/kg | 76% |  |
| CCN(CC)CCNC(=O)c1cc(Cl)c(N)cc1OCC(=O)c1cccs1 [Example 52, 4-Amino-5-chloro-N-[2-(diethylamino)ethyl]-2-(2-thienoylmethoxy)benzamide] | > 3 mg/kg | 95% |  |
| CCN(CC)CCNC(=O)c1cc(Cl)c(N)cc1OCCC1(C)OCCO1 [Example 54] | > 3 mg/kg | 81% |  |
